Values of other authors as cited in US8637078B2, “Bilayer tablet comprising telmisartan and diuretic” (Boehringer Ingelheim International GmbH, priority 2005, dated 2014).

Assays:
[1] = both polymorphic forms A and B; physiological pH range of the gastrointestinal tract, pH 1 to 7
[2] = composition with 3 to 50 wt. % telmisartan in dissolving matrix (basic agent, surfactant or emulsifier, water-soluble diluent); known from WO 2004/028505

SMILES: CCCc1nc2c(C)cc(-c3nc4ccccc4n3C)cc2n1Cc1ccc(-c2ccccc2C(=O)O)cc1 [telmisartan, 4′-[2-n-propyl-4-methyl-6-(1-methylbenzimidazol-2-yl)-benzimidazol-1-ylmethyl]-biphenyl-2-carboxylic acid]
- solubility in aqueous systems [1]: very poor solubility
- solubility raised by a factor [2]: several hundred
